The values that follow are results of earlier work, collected in patent US7332183B2, “Multilayer dosage forms containing NSAIDs and triptans” (Pozen Inc., priority 2002, dated 2008).

The structures appear in SMILES notation.

For the series the following is noted: in vivo.
`CCc1cccc2c3c([nH]c12)C(CC)(CC(=O)O)OCC3` (stereo not shown) [etodolac]: the half life result is recorded as “about 7 hours”.
As for `CC(C(=O)O)c1ccc(-c2ccccc2)c(F)c1` (stereo not shown) [flurbiprofen], the half life result is given as “about 6 hours”.
For `Cc1cccc(Nc2ccccc2C(=O)O)c1C` [mefanamic acid], the half life result is “about 4 hours”.
Take `CS(=O)(=O)c1ccc(C2=C(c3ccccc3)C(=O)OC2)cc1` [rofecoxib]: the half life result is “about 17 hours”.
